The text below walks through data of patent US11471452B2, “Compositions and methods for treating or preventing vasomotor symptoms” (Mitsubishi Tanabe Pharma Corporation, priority 2017, dated 2022).

The subject of assay [1] is female subjects experiencing Vasomotor Symptoms (VMS). Nature of the assay: Phase Ib study: core body temperature assessment, change from baseline within 24 hours post-dose. Type of assay: in vivo, human. The conditions noted are these: 5 mg administered group, within 24 hours post-dose on Visit Day 1 or 7; like placebo, in comparison with 20 mg and 50 mg groups. The text has this:
(§1) Study Design: This was a Phase Ib, randomized, double blind, placebo controlled study. The study design is illustrated in FIG. 1. Following the initial Screening visit, eligible subjects was given an actigraphy event monitor (watch) to record episodes of flashing as Vasomotor symptoms (VMS) events during a period of 2 weeks during Screening, in order to confirm VMS eligibility criteria (≥7 VMS/day on average during 2 weeks). Subjects may be required to return to the site during the Screening period to read or exchange the actigraphy event monitor. Subjects deemed eligible following review of VMS data were invited to attend the Clinical research unit (CRU) for one residential period of 16 days duration, including 14 days of Investigational Medicinal Product (IMP) administration. Subjects were admitted to the CRU 1 day prior to dosing (Day-1). No medication was administered on Day-1. On Day 1, subjects who meet the study eligibility criteria were randomized to receive one dose level of either Compound A (6 subjects) or a matching placebo (2 subjects) in a double-blind manner. Randomized treatment was administered once nightly, starting on Day 1, for a total duration of 14 days.
The anticipated dose levels of Compound A to be administered are 50 mg for Cohort 1, 20 mg for Cohort 2 and 5 mg for Cohort 3. […]

The test system is the same in assay [2]. In words: Phase Ib study: frequency of vasomotor symptoms (VMS), moderate and severe VMS counted, 14 days once nightly dosing. Details: Mean Observed Value in VMS frequency: unit not given here. In kind it is in vivo, human.
Text: as §1
The anticipated dose levels of Compound A to be administered are 50 mg for Cohort 1, 20 mg for Cohort 2 and 5 mg for Cohort 3. Progression to the next dose level and selection of the dose to be administered in Cohort 2 and Cohort 3 is based on emerging safety and tolerability data and available core body temperature data from the preceding dose cohort. If the dose escalation stopping criteria are met, then the dose for the subsequent cohort is reduced. […] The three cohorts are dosed sequentially with a fourth additional cohort being dosed, if necessary, to investigate other dose levels.
Five (5) mg of Compound A was administered to the female subjects experiencing Vasomotor Symptoms (VMS), and as the above-mentioned assessments, a Frequency of VMS and a Core body temperature assessment were examined.
Here a moderate VMS and a severe VMS were counted as a VMS frequency.

Molecules are shown by their SMILES.

As to `O=C(O)c1ccc(S(=O)(=O)N(Cc2ccc(OC(F)(F)F)cc2)c2ncc3ccccc3c2C2CC2)cc1` [Compound A, 4-({(4-cyclopropylisoquinolin-3-yl)[4-(trifluoromethoxy)benzyl]amino}sulfonyl)benzoic acid], the “Change from baseline in core body temperature” value in assay [1] is reported as “no significant reduced the core body temperature”. In addition, the “Effect on frequency of VMS versus placebo (FIG. 2)” value in assay [2] (5 mg once nightly, 14 days of treatment) is “reduced the frequency of VMS significantly”. Moreover, in assay [2] (5 mg, shown during the first night of active drug therapy or later, within a few days, compared to estrogen or Paroxetine), the “Onset of the reduction effect of VMS frequency” value is on record as “immediate effect”. The “Mean Observed Value in VMS frequency” value in assay [2] (Baseline, 5 mg Compound A group, moderate and severe VMS counted) amounted to 14.5; in assay [2] (Day 1, 5 mg once nightly) it was 9.7; in assay [2] (Day 2, 5 mg once nightly), 7.2; in assay [2] (Day 3, 5 mg once nightly), 6.3; in assay [2] (Day 4, 5 mg once nightly) it was 5.3; in assay [2] (Day 5, 5 mg once nightly), 8.0. The “Mean Observed Value in VMS frequency” value in assay [2] (Day 6, 5 mg once nightly) was determined as 6.3; in assay [2] (Day 7, 5 mg once nightly), 4.7; in assay [2] (Day 8, 5 mg once nightly), 3.7; in assay [2] (Day 9, 5 mg once nightly), 4.5; in assay [2] (Day 10, 5 mg once nightly), 3.2; in assay [2] (Day 11, 5 mg once nightly), 3.7. Moreover, the “Mean Observed Value in VMS frequency” value amounted to 3.2 in assay [2] (Day 12, 5 mg once nightly); 3.2 in assay [2] (Day 13, 5 mg once nightly); 4.8 in assay [2] (Day 14, 5 mg once nightly).
